Data reported in the NIST ThermoML archive (doi:10.1021/je0500577).

Legend:
[1] = xn = mol fraction of the nth substance listed; settings: Drop volume
[2] = for surface tension liquid-gas: Drop volume

BrC1CCCCC1 [bromocyclohexane] + CC1CCCO1
surface tension liquid-gas [mN/m], [1]
Settings	298.15 K	313.15 K
x1 = 0.042	24.87	23.36
x1 = 0.0933	25.28	23.78
x1 = 0.1942	26.13	24.63
x1 = 0.2908	26.95	25.48
x1 = 0.3921	27.82	26.38
x1 = 0.5072	28.82	27.43
x1 = 0.5896	29.55	28.19
x1 = 0.6994	30.58	29.24
x1 = 0.8173	31.75	30.49
x1 = 0.9043	32.65	31.55
x1 = 0.9247	32.86	31.85
x1 = 1	33.63	32.98

ClC1CCCCC1 [chlorocyclohexane]
[2]
Settings	surface tension liquid-gas [mN/m]
298.15 K	31.05
313.15 K	29.44

Settings	mass density [kg/m3]
[2], 298.15 K, 101.33 kPa, Liquid	993.17

ClC1CCCCC1 [chlorocyclohexane] + C1CCOC1
surface tension liquid-gas [mN/m], [1]
Settings	298.15 K	313.15 K
x1 = 0.0361	–	25.39
x1 = 0.0362	27.27	–
x1 = 0.0727	–	25.56
x1 = 0.0728	27.43	–
x1 = 0.1434	–	25.88
x1 = 0.1442	27.73	–
x1 = 0.2257	–	26.25
x1 = 0.2258	28.07	–
x1 = 0.3114	28.43	26.66
x1 = 0.4061	28.82	27.09
x1 = 0.5071	–	27.52
x1 = 0.5093	29.25	–
x1 = 0.6163	29.68	–
x1 = 0.6173	–	27.96
x1 = 0.7351	–	28.42
x1 = 0.7359	30.11	–
x1 = 0.8582	–	28.89
x1 = 0.8602	30.54	–
x1 = 0.9267	30.77	–
x1 = 0.9291	–	29.16
x1 = 1	31.05	29.44
